The source of these data is patent publication US6541240B1, “Bacterial cleavage of only organic C-N bonds of carbonaceous materials to reduce nitrogen content” (Petroleo Brasileiro S.A.-Petrobras, priority 1999, dated 2003).

For series [1], the system named is Pseudomonas ayucida No PTA-806. Description: Nitrogen Bioavailability Assay, substrate range and specificity tests. It is filed as cell-based. To be noted: for growth on test compound as nitrogen source: substrate range and specificity tests. The source says:
The ability of bacteria to utilize organic nitrogen compounds for growth can be measured by the Nitrogen Bioavailability Assay (NBA). This assay is based on the fact that all life requires some nitrogen for growth and, therefore, a situation can be created whereby quantifying bacterial growth provides a measure of the utilization of any organic or inorganic compound as a source of nitrogen.
Thus, the Nitrogen Availability Assay utilizes defined mineral salts medium in growth tests in which organonitrogen model compounds such as quinoline, pyridine, carbazole, and porphyrin serve as sources of carbon and/or nitrogen. Growth tests are performed using six conditions:
1. Test compound as sole source of carbon and nitrogen;
2. […]
3. Test compound as sole source of nitrogen (alternative carbon source, glucose/glycerol/succinate, is available);
4. Test compound present as well as alternative sources of carbon and nitrogen;
5. Only alternative nitrogen (ammonia) and carbon (glucose/glycerol/succinate) sources are available. The test compound is not present.
6. No nitrogen compounds of any kind are present, but alternative carbon (glucose/glycerol/succinate) sources are available.
These six growth conditions constitute a bioassay for the ability of a culture to metabolize organonitrogen compounds. […]
The NBA test may be performed with any organonitrogen test compound which is ordinarily used at a concentration of from 3 mM to 20 mM.
In order to determine the range of organonitrogen compounds that could serve as sole sources of nitrogen for growth for the various pure cultures of the invention various organonitrogen compounds and control compounds are tested according to the Nitrogen Bioavailability Assay procedure. All compounds are highly pure, analytical grade compounds.
The various cultures are inoculated into test tubes or shake flasks containing media components appropriate for the six test conditions.
The cultures are then incubated aerobically for 2 to 4 days, at room temperature or at 30° C.
The growth of the cultures is monitored by measuring the turbidity/optical density of the cultures in the various test conditions, or by determining colony forming units.
Test condition no 6 (nitrogen-free sample) is a negative control.
Test conditions no 4 and 5 are positive controls since the samples are amended with both a carbon and nitrogen source and therefore should produce healthy microbial growth unless the test compound is toxic to the culture being tested. In this event only condition no 5 should result in healthy growth.
Substrate range and specificity tests were also carried out for the microorganism of the invention.

For a further series, the system named is Aneurinibacillus sp. Description: Nitrogen Availability Assay, growth and substrate range tests of thermophilic culture. To be noted: for minimum nitrogen concentration needed for growth: sole nitrogen source; for growth on test compound (substrate range): 3 mM test compound, 2 to 3 weeks incubation. The method, then: The growth curve for this microorganism on pyridine as sole nitrogen source at 55° C. was determined by adding pyridine at the concentration of 3 mM to the Modified A medium in a 300 ml shake flask with a side arm klett tube to take klett/turbidity readings. Inoculums from log phase cultures were used in studying the growth kinetics of the culture. […] All experiments were in triplicate.
The concentration of nitrogen required by Aneurinibacillus sp. for growth was investigated using ammonium chloride and pyridine as sole nitrogen sources in modified medium A, at pH 7 and 55° C.
Substrate range and specificity tests were carried out for this culture. Experiments were performed during 2 to 3 weeks of incubations in sterile tubes with 3 mM concentration of the test compounds and an incubation volume of 5 ml.

A further series concerns Pseudomonas stutzeri. Put plainly: Utilization of carbazole as nitrogen or carbon source. Format: cell-based. The method, then: This culture is prepared by the methods described hereinbefore. […] Experimental results lead to the conclusion that C—N bonds in carbazole are selectively cleaved by the Pseudomonas stutzer culture isolated here although the specific metabolites produced have not yet been determined.

Another series relates to Yokenella sp. The description is as above. Format: cell-based. The method, then:
The Yokenella sp. culture is prepared according to the principles described hereinbefore. […] Experimental results lead to the conclusion that C—N bonds in carbazole are selectively cleaved by the Yokenella sp. culture isolated here although the specific metabolites produced have not yet been determined.

Series [2] has as its system Derivatives of Pseudomonas ayucida No PTA-806. Put plainly: Utilization of organonitrogen compounds by derivative culture. Format: cell-based. The source says: Similarly, derivatives of Pseudomonas ayucida No PTA-806 that are resistant to antiobiotics, either by the isolation of chromosomal mutations or by the introduction of suitable plasmids, retain the ability to selectively cleave C—N bonds in quinoline and other organonitrogen compounds.

The subject of series [3] is Pseudomonas ayucida No PTA-806. Put plainly: Petroleum (shale oil) biodenitrogenation test. Format: cell-based. The note with it: overnight (16 hour) incubation.
Method: One liter of culture OD600=1.67 is produced, which is harvested and the cell pellet is resuspended in 100 mls of ModA medium. The culture is divided into two 50 ml portions and 3 ml of shale oil (1.7 weight % nitrogen) is added to each. Then, the cultures are incubated under agitation at room temperature overnight (16 hours), the oil is separated and analyzed. The amount of quinoline present in oil samples is determined by GC, the area under the peak being corresponding to a retention time for quinoline.
Then duplicate washed concentrated cell suspensions were incubated with shale oil samples for 16 hours at 30° C. The control sample consisted of shale oil added to sterile ModA medium which was incubated for 16 hours at 30° C. After incubation the petroleum samples were recovered and analyzed.
Series [4] concerns Pseudomonas nitroreducens.
The mark [5] stands for this setting: modified medium A, pH 7, 55° C.
The mark [6] stands for this setting: pyridine 3 mM as sole nitrogen source, 55° C., Modified A medium.

For `CCCCN1CCCC1` [1-butylpyrrolidine], the “growth in the presence of test compound when quinoline simultaneously present as alternate nitrogen source” value in series [1] is “grew in the presence of all of the test compounds except”.
Regarding `Oc1cc(O)c2ccccc2n1` [2,4-quinolinediol], the “growth on test compound as nitrogen source” value (“growth … as nitrogen source” below) in series [1] is reported as “grow”.
For the compound `C=C1N(C)c2ccccc2C1(C)C` [2-methylene-1,3,3-trimethyl indoline], in series [1], the “growth in the presence of test compound when quinoline simultaneously present as alternate nitrogen source” value is on record as “grew in the presence of all of the test compounds except”.
As for `O=C1CCc2ccccc2N1` [3,4-dihydro-(1H)-quinolinone], in series [1], the “growth … as nitrogen source” value is given as “grow”.
On to `O=c1ccc2cccc(O)c2o1` [8-hydroxycoumarin], for which the “utilization as carbon source for growth” value in series [1] is “lack of utilization”.
For `Oc1cccc2cccnc12` [8-hydroxyquinoline], the “growth … as nitrogen source” value in series [1] was “grow”.
Take `Cl.N` [ammonium chloride]: the “minimum nitrogen concentration needed for growth” value with Aneurinibacillus sp. (setting [5]) was determined as 0.5 mM.
Turning to `c1ccc2c(c1)[nH]c1ccccc12` [carbazole], in the series with Pseudomonas stutzeri, the “utilization as sole nitrogen source” value was “able to utilize” and the “utilization as source of carbon” value was “dose not utilize”. In the series on Yokenella sp., the “utilization as sole nitrogen source” value is listed as “able to utilize” and the “utilization as source of carbon” value is recorded as “dose not utilize”.
As for `Nc1nc2nc[nH]c2c(=O)[nH]1` [guanine], the “growth on test compound (substrate range)” value (“growth … (substrate range)” for short) with Aneurinibacillus sp. is reported as “showed growth”. For the same compound, the “growth … as nitrogen source” value in series [1] was “grow”.
`c1ccc2cnccc2c1` [isoquinoline]: the “utilization / metabolism by derivative culture” value (“utilization / metabolism” for short) in series [2] is reported as “increased substrate range for the metabolism”.
Regarding `NCCCC[C@H](N)C(=O)O` [lysine], the “growth … (substrate range)” value in the series with Aneurinibacillus sp. is recorded as “showed growth”. Also, the “growth … as nitrogen source” value in series [1] is given as “grow”.
On the same counts, the results for `O=C(O)c1cccnc1` [nicotinic acid] are “showed growth” and “grow”.
On to `c1ccncc1` [pyridine], for which, in the series with Aneurinibacillus sp., the “utilization as carbon source” value is recorded as “no utilization” and the “growth … (substrate range)” value is “showed growth”. Further, the “utilization as sole nitrogen source” value with Aneurinibacillus sp. (55° C.) is on record as “able to utilize”. In addition, in the series on Aneurinibacillus sp. (setting [5]), the “concentration inhibitory to the culture” value is “higher than 10 mM” and the “minimum nitrogen concentration needed for growth” value amounted to 0.5 mM. Moreover, in the series on Aneurinibacillus sp. (setting [6]), the exponential growth rate amounted to 0.13 h and the generation time was determined as 7.55 h.
For the compound `c1ccc2ncncc2c1` [quinazoline], the “utilization / metabolism” value in series [2] was “increased substrate range for the metabolism”.
For the compound `c1ccc2ncccc2c1` [quinoline], the “quinoline removed from shale oil” value in series [3] is given as “about 68%”. Besides, the “growth with compound as sole source of nitrogen” value in series [4] was “growth with quinoline as sole source of nitrogen is indicated”. Besides, the “reduction of total nitrogen content of the medium” value in series [4] (quinoline 3.4 mM as sole source of nitrogen) is “up to 85%”. Besides, in series [1], the “utilization as carbon source for growth” value is on record as “lack of utilization” and the “growth … as nitrogen source” value is reported as “grow”. Besides, the cell doubling time in series [1] (defined salts medium, 30° C., quinoline as sole nitrogen source) turned out to be 4.25 h.
`c1ccc2nccnc2c1` [quinoxaline]: the “growth … as nitrogen source” value in series [1] is reported as “grow”. Also, the “utilization / metabolism” value in series [2] is recorded as “improved ability to utilize”.
As to `N[C@@H](Cc1c[nH]c2ccccc12)C(=O)O` [tryptophan], the “growth … (substrate range)” value in the series on Aneurinibacillus sp. is “showed growth”. The “growth … as nitrogen source” value in series [1] is reported as “grow”.
On to `NC(N)=O` [urea], for which, in the series on Aneurinibacillus sp., the “growth … (substrate range)” value was “showed growth”. Besides, the “growth … as nitrogen source” value in series [1] is given as “grow”.
